Experimental data: patent US20240368164A1, “PURINE NUCLEOSIDES, THEIR INTERMEDIATES, AND METHODS OF PREPARATION THEREOF” (Astrocyle Pharmaceuticals, Inc., priority 2021, published 2024)
pKi: −log10 of the molar value.

Assays:
Human A3R = target: T1, Human A3R (Homo sapiens, UniProt P0DMS8); assay: Radioligand binding at human A3 adenosine receptor ([125I]I-AB-MECA, CHO cell membranes); details: n = 1; read-out: Affinity (nM) at Human A3R
T1 construct: expressed in transfected cells
T1 sequence (P0DMS8 1-318): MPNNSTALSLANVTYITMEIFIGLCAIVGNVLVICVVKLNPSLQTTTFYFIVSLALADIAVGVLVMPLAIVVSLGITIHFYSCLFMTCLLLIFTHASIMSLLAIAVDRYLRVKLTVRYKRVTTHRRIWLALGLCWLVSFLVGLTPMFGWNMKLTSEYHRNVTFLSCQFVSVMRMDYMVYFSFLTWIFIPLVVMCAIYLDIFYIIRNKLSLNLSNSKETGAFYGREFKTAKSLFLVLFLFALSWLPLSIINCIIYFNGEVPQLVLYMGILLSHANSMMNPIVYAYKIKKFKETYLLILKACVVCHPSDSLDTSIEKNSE
Method: [3H]R—N^6-Phenylisopropyladenosine ([3H]R-PIA, 63 Ci/mmol), [^3H](2-[p-(2-carboxyethyl)phenyl-ethylamino]-5′-N-ethylcarboxamido-adenosine) ([^3H]CGS21680, 40.5 Ci/mmol) and [^125I]N^6-(4-amino-3-iodobenzyl)adenosine-5′-N-methyluronamide ([^125I]I-AB-MECA, 2200 Ci/mmol) were purchased from Perkin-Elmer Life and Analytical Science (Boston, MA). Test compounds were prepared as 5 mM stock solutions in DMSO and stored frozen.
Cell Culture and Membrane Preparation—CHO cells stably expressing the recombinant hA1 and hA3ARs and HEK293 cells stably expressing the hA2AAR were cultured in Dulbecco's modified Eagle medium (DMEM) and F12 (1:1) supplemented with 10% fetal bovine serum, 100 units/mL penicillin, 100 μg/mL streptomycin, and 2 μmol/mL glutamine. In addition, 800 μg/mL geneticin was added to the A2A media, while 500 μg/mL hygromycin was added to the A1 and A3 media. After harvesting, cells were homogenized and suspended in PBS. Cells were then centrifuged at 240 g for 5 min, and the pellet was resuspended in 50 mM Tris-HCl buffer (pH 7.5) containing 10 mM MgCl2. The suspension was homogenized and was then ultra-centrifuged at 14,330 g for 30 min at 4° C. The resultant pellets were resuspended in Tris buffer, incubated with adenosine deaminase (3 units/mL) for 30 min at 37° C. The suspension was homogenized with an electric homogenizer for 10 sec, pipetted into 1 mL vials and then stored at −80° C. until the binding experiments. The protein concentration was measured using the BCA Protein Assay Kit from Pierce Biotechnology, Inc. (Rockford, IL).
Binding assays: Into each tube in the binding assay was added 50 μL of increasing concentrations of the test ligand in Tris-HCl buffer (50 mM, pH 7.5) containing 10 mM MgCl2, 50 μL of the appropriate agonist radioligand, and finally 100 μL of membrane suspension. For the A1AR (22 μg of protein/tube) the radioligand used was [^3H]R-PIA (final concentration of 3.5 nM). For the A2AAR (20 μg/tube) the radioligand used was [^3H]CGS21680 (10 nM). For the A3AR ([…]) the radioligand used was [^125I]I-AB-MECA (0.34 nM). Nonspecific binding was determined using a final concentration of 10 μM NECA diluted with the buffer. The mixtures were incubated at 25° C. for 60 min in a shaking water bath. Binding reactions were terminated by filtration through Brandel GF/B filters under a reduced pressure using a M-24 cell harvester (Brandel, Gaithersburg, MD). Filters were washed three times with 3 mL of 50 mM ice-cold Tris-HCl buffer (pH 7.5). Filters for A1 and A2AAR binding were placed in scintillation vials containing 5 mL of Hydrofluor scintillation buffer and counted using a Perkin Elmer Liquid Scintillation Analyzer (Tri-Carb 2810TR). Filters for A3AR binding were counted using a Packard Cobra II T-counter. The Ki values were determined using GraphPad Prism for all assays.
A3R binding of selected compounds. Using methods described herein, the affinity of selected compounds at the A3 receptor was measured.

A3 receptor in the mouse = target: T2, A3 receptor in the mouse (Mus musculus, UniProt Q61618); assay: Affinity at the mouse A3 receptor; format: binding
T2 sequence (Q61618 1-319): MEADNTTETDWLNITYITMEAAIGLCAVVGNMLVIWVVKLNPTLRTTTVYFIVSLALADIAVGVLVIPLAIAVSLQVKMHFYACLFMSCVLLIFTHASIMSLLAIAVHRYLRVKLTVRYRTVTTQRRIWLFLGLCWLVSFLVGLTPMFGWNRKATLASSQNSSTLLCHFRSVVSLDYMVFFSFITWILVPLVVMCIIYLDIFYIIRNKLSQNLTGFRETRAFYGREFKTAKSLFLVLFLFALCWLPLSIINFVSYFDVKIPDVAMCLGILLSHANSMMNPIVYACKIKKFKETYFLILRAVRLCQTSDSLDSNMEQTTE
Method: Similar competition binding assays may be conducted using HEK293 cell membranes expressing mARs using [^125I]I-AB-MECA to label A1 or A3ARs and [3H]CGS21680 to label A2AARs. IC50 values were converted to Ki values using known methods. Nonspecific binding was determined in the presence of 100 μM NECA.

Compound: CSc1nc(N)c2ncn([C@H]3[C@H](O)[C@H](O)[C@]4(CO)C[C@H]34)c2n1 [Compound I-1, (1R,2R,3S,4R,5S)-4-(6-Amino-2-(methylthio)-9H-purin-9-yl)-1-(hydroxymethyl)bicyclo[3.1.0]hexane-2,3-diol]
- Ki (Human A3R): 1490 nM
- difference in affinity of I-1 and Cl-IB-MECA at mouse A3 receptor (A3 receptor in the mouse; I-1 versus Cl-IB-MECA): approximately 25,000 fold
- pKi (A3 receptor in the mouse; mouse A3 receptor, read-out: affinity as agonist of the A3 receptor in the mouse): 5.31
